Test results from ChEMBL document CHEMBL5131391, “One-pot three-component synthesis of novel pyrazolo[3,4-b]pyridines as potent antileukemic agents” (Eur J Med Chem, 2022).
Active and inactive are the calls of the source. The rule behind the calls is not given here.

How the values were obtained:
RS4-11 [1] = test: Downregulation of MEIS1 protein expression in human RS4-11 cells at 5 to 20 uM measured after 24 hrs by Western blot analysis; assay type: functional, cell-based; settings: dose 5-20 µM
CCRF-CEM = test: Antiproliferative activity against human CEM cells assessed as reduction in cell viability incubated for 72 hrs by resazurin dye based assay; assay type: functional
ML-2 = test: Antiproliferative activity against human ML-2 cells assessed as reduction in cell viability incubated for 72 hrs by resazurin dye based assay; assay type: functional; settings: ML-2, 72 h
RS4-11 [2] = test: Antiproliferative activity against human RS4-11 cells assessed as reduction in cell viability incubated for 72 hrs by resazurin dye based assay; assay type: functional; settings: RS4-11, 72 h
RS4-11 [3] = test: Downregulation of HOXA9 protein expression in human RS4-11 cells at 5 to 20 uM measured after 24 hrs by Western blot analysis; assay type: functional, cell-based; settings: dose 5-20 µM
K562 = test: Antiproliferative activity against human K562 cells assessed as reduction in cell viability incubated for 72 hrs by resazurin dye based assay; assay type: functional; settings: K562, 72 h
RS4-11 [4] = test: Induction of cell cycle arrest in human RS4-11 cells assessed as accumulation of cells in subG1 phase at 1.25 to 10 uM measured after 72 hrs by PI staining based flow cytometry analysis; assay type: functional; settings: dose 1.25-10 µM
MV4-11 = test: Antiproliferative activity against human MV4-11 cells assessed as reduction in cell viability incubated for 72 hrs by resazurin dye based assay; assay type: functional; settings: MV4-11, 72 h
RS4-11 [5] = test: Induction of cell cycle arrest in human RS4-11 cells assessed as accumulation of cells in G2/M phase at 1.25 to 10 uM measured after 72 hrs by PI staining based flow cytometry analysis; assay type: functional; settings: dose 1.25-10 µM
KOPN-8 = test: Antiproliferative activity against human KOPN-8 cells assessed as reduction in cell viability incubated for 72 hrs by resazurin dye based assay; assay type: functional; settings: KOPN-8, 72 h

IC50 (CCRF-CEM) [µM]	IC50 (RS4-11 [2]) [µM]	IC50 (K562) [µM]	IC50 (MV4-11) [µM]	Structure (SMILES)	Activity (RS4-11 [1])	IC50 (ML-2) [µM]	Activity (RS4-11 [3])	Activity (RS4-11 [4])	Activity (RS4-11 [5])	IC50 (KOPN-8) [µM]
23.9	4.6	2	5.1	Cc1ccc(-c2nc3c(c(-c4ccccc4)nn3-c3ccccc3)c(-c3ccc4c(c3)OCO4)c2C#N)cc1	Active	7.7	Active	Active	Active	0.7
37.3		15.4	44.2	COc1cc(-c2c(C#N)c(-c3cccs3)nc3c2c(-c2ccccc2)nn3-c2ccccc2)ccc1O						
> 25		> 25	> 25	COc1ccc(-c2c(C#N)c(-c3ccccc3)nc3c2c(-c2ccccc2)nn3-c2ccccc2)cc1OC						
> 25		11.6	34.2	N#Cc1c(-c2cccs2)nc2c(c(-c3ccccc3)nn2-c2ccccc2)c1-c1ccc(O)cc1						
